Values after ≈ are worked out from the molar mass of the structure shown. Each block holds one molecule with its values, some of them ahead of it. Active and inactive are the calls of the source. The calls are words filed in the database; no cut-off is given here.
Key:
[1] = tested on: Acinetobacter baumannii; test: Antibiofilm activity against Acinetobacter baumannii S1 assessed as inhibition rate of biofilm formation at 100 uM incubated for 18 to 24 hrs by crystal violet staining based assay (reference value: 28.8 +/- 8.21%); assay type: functional; set-up: scale not given: the % may be the effect or the level left; conditions: time 18-24 hrs
[2] = tested on: Acinetobacter baumannii; test: Antibacterial activity against Acinetobacter baumannii S1 assessed as planktonic growth inhibition incubated for 18 to 24 hrs by CLSI protocol based assay; assay type: functional; conditions: time 18-24 hrs
[3] = tested on: Acinetobacter baumannii; test: Antibacterial activity against Acinetobacter baumannii assessed as planktonic growth inhibition incubated for 18 to 24 hrs by CLSI protocol based assay; assay type: functional; conditions: time 18-24 hrs
[4] = tested on: Acinetobacter baumannii; test: Synergistic antibacterial activity against Acinetobacter baumannii assessed as planktonic growth inhibition incubated for 18 to 24 hrs in the presence of chloramphenicol by CLSI protocol based checkerboard assay; assay type: functional; conditions: time 18-24 hrs
[5] = tested on: Acinetobacter baumannii; test: Antibiofilm activity against Acinetobacter baumannii assessed as reduction in biofilm thickness at 100 uM incubated for 24 hrs by Alexa fluor 488 staining based confocal laser microscopic analysis (reference value: 25.91); assay type: functional
[6] = tested on: Staphylococcus aureus; test: Antibiofilm activity against Staphylococcus aureus ATCC […] assessed as inhibition rate of biofilm formation at 200 uM incubated for 18 to 24 hrs by crystal violet staining based assay relative to control; assay type: functional; conditions: time 18-24 hrs
[7] = tested on: Acinetobacter baumannii; test: Synergistic antibacterial activity against Acinetobacter baumannii assessed as planktonic growth inhibition incubated for 18 to 24 hrs in the presence of gentamycin sulphate by CLSI protocol based checkerboard assay; assay type: functional; conditions: time 18-24 hrs
[8] = tested on: 3T3-L1; test: Cytotoxicity against mouse 3T3-L1 cells assessed as reduction in cell viability at 200 uM incubated for 24 hrs by MTT assay relative to control; assay type: toxicity, cell-based; conditions: 3t3-l1, 24 h
[9] = tested on: Acinetobacter baumannii; test: Synergistic antibacterial activity against Acinetobacter baumannii assessed as planktonic growth inhibition incubated for 18 to 24 hrs in the presence of oxacillin by CLSI protocol based checkerboard assay; assay type: functional; conditions: time 18-24 hrs
[10] = tested on: Acinetobacter baumannii; test: Synergistic antibacterial activity against Acinetobacter baumannii assessed as fractional inhibitory concentration index incubated for 18 to 24 hrs in the presence of oxacillin by CLSI protocol based checkerboard assay; assay type: functional; conditions: time 18-24 hrs
[11] = tested on: 3T3-L1; test: Cytotoxicity against mouse 3T3-L1 cells assessed as reduction in cell viability at 100 uM incubated for 24 hrs by MTT assay relative to control; assay type: toxicity, cell-based; conditions: 3t3-l1, 24 h
[12] = tested on: 3T3-L1; test: Cytotoxicity against mouse 3T3-L1 cells assessed as reduction in cell viability at 50 uM incubated for 24 hrs by MTT assay relative to control; assay type: toxicity, cell-based; conditions: 3t3-l1, 24 h
[13] = tested on: Acinetobacter baumannii; test: Antibiofilm activity against Acinetobacter baumannii 1778027 assessed as inhibition of biofilm formation incubated for 18 to 24 hrs by crystal violet staining based assay; assay type: functional, organism-based
[14] = tested on: 3T3-L1; test: Cytotoxicity against mouse 3T3-L1 cells assessed as reduction in cell viability at 25 uM incubated for 24 hrs by MTT assay relative to control; assay type: toxicity, cell-based; conditions: 3t3-l1, 24 h
[15] = tested on: Acinetobacter baumannii; test: Antibiofilm activity against Acinetobacter baumannii assessed as reduction in extracellular polysaccharides at 100 uM incubated for 1 hrs by ELISA analysis; assay type: functional; set-up: scale not given: the % may be the effect or the level left
[16] = tested on: Acinetobacter baumannii; test: Antibiofilm activity against Acinetobacter baumannii 1913061 assessed as inhibition of biofilm formation incubated for 18 to 24 hrs by crystal violet staining based assay; assay type: functional, organism-based
[17] = tested on: Acinetobacter baumannii; test: Synergistic antibacterial activity against Acinetobacter baumannii assessed as fractional inhibitory concentration index incubated for 18 to 24 hrs in the presence of chloramphenicol by CLSI protocol based checkerboard assay; assay type: functional; conditions: time 18-24 hrs
[18] = tested on: Acinetobacter baumannii; test: Antibiofilm activity against Acinetobacter baumannii ATCC19606 assessed as inhibition of biofilm formation incubated for 18 to 24 hrs by crystal violet staining based assay; assay type: functional, organism-based
[19] = tested on: Staphylococcus epidermidis; test: Antibiofilm activity against Staphylococcus epidermis ATCC 102555 assessed as inhibition rate of biofilm formation at 200 uM incubated for 18 to 24 hrs by crystal violet staining based assay relative to control; assay type: functional; conditions: time 18-24 hrs
[20] = tested on: Pseudomonas aeruginosa; test: Antibiofilm activity against Pseudomonas aeruginosa ATCC 27853 assessed as inhibition rate of biofilm formation at 200 uM incubated for 18 to 24 hrs by crystal violet staining based assay relative to control; assay type: functional; conditions: time 18-24 hrs
[21] = tested on: Acinetobacter baumannii; test: Antibiofilm activity against Acinetobacter baumannii assessed as reduction in bacterial motility in agar plates by quorum sensing process at 100 uM incubated for 24 hrs; assay type: functional, organism-based
[22] = tested on: Acinetobacter baumannii; test: Antibiofilm activity against Acinetobacter baumannii S1 assessed as inhibition of biofilm formation incubated for 18 to 24 hrs by crystal violet staining based assay; assay type: functional, organism-based
[23] = tested on: Acinetobacter baumannii; test: Antibiofilm activity against Acinetobacter baumannii 1925052 assessed as inhibition of biofilm formation incubated for 18 to 24 hrs by crystal violet staining based assay; assay type: functional, organism-based
[24] = tested on: Acinetobacter baumannii; test: Antibiofilm activity against Acinetobacter baumannii 1780608 assessed as inhibition of biofilm formation incubated for 18 to 24 hrs by crystal violet staining based assay; assay type: functional, organism-based
[25] = tested on: Acinetobacter baumannii; test: Synergistic antibacterial activity against Acinetobacter baumannii assessed as fractional inhibitory concentration index incubated for 18 to 24 hrs in the presence of gentamycin sulphate by CLSI protocol based checkerboard assay; assay type: functional; conditions: time 18-24 hrs
[26] = tested on: Escherichia coli; test: Antibiofilm activity against Escherichia coli Dh5alpha assessed as inhibition rate of biofilm formation at 200 uM incubated for 18 to 24 hrs by crystal violet staining based assay relative to control; assay type: functional; conditions: DH5-alpha, time 18-24 hrs
[27] = tested on: 3T3-L1; test: Cytotoxicity against mouse 3T3-L1 cells assessed as reduction in cell viability at 12.5 uM incubated for 24 hrs by MTT assay relative to control; assay type: toxicity, cell-based; conditions: 3t3-l1, 24 h
[28] = Cytotoxicity against mouse 3T3-L1 cells assessed as inhibition of cell growth incubated for 24 hrs by MTT assay; assay type: toxicity, cell-based
[29] = tested on: Escherichia coli; test: Antibiofilm activity against Escherichia coli Dh5alpha assessed as inhibition of biofilm formation incubated for 18 to 24 hrs by crystal violet staining based assay; assay type: functional, organism-based; conditions: DH5-alpha
[30] = tested on: Pseudomonas aeruginosa; test: Antibiofilm activity against Pseudomonas aeruginosa ATCC 27853 assessed as inhibition of biofilm formation incubated for 18 to 24 hrs by crystal violet staining based assay; assay type: functional, organism-based
[31] = tested on: Staphylococcus epidermidis; test: Antibiofilm activity against Staphylococcus epidermis ATCC 102555 assessed as inhibition of biofilm formation incubated for 18 to 24 hrs by crystal violet staining based assay; assay type: functional, organism-based
[32] = tested on: Staphylococcus aureus; test: Antibiofilm activity against Staphylococcus aureus ATCC […] assessed as inhibition of biofilm formation incubated for 18 to 24 hrs by crystal violet staining based assay; assay type: functional, organism-based
[33] = tested on: Acinetobacter baumannii; test: Antibiofilm activity against Acinetobacter baumannii assessed as reduction in biofilm brightness at 100 uM incubated for 24 hrs by Alexa fluor 488 staining based confocal laser microscopic analysis; assay type: functional, organism-based

MIC [2]: > 256 µg/mL
SMILES: CCCCCCCCCCCCCC(=O)Nc1nc(OC)cc(OC)n1
Activity [1]: 59.3%

MIC [2]: > 256 µg/mL
SMILES: CCCCCCCC(=O)Nc1ncccn1
Activity [1]: 17.8%

MIC [2]: > 256 µg/mL
SMILES: CC(C)(C)C(=O)Nc1ncccn1
Activity [1]: 12.3%

MIC [2]: > 256 µg/mL
SMILES: CCOC(=O)CCC(=O)Nc1ncccn1
Activity [1]: 19.1%

SMILES: Cc1onc(-c2ccccc2)c1C(=O)N[C@@H]1C(=O)N2[C@@H]1SC(C)(C)[C@@H]2C(=O)O [OXACILLIN]
MIC [3]: 512 µg/mL (≈ 1280 µM)

MIC [2]: > 256 µg/mL
SMILES: O=C(/C=C/c1ccccc1)Nc1ncccn1
Activity [1]: 13.6%

MIC [2]: > 256 µg/mL
SMILES: CCCCCCCCCCCCCC(=O)Nc1ncc(Cl)c(Cl)n1
Activity [1]: 30.9%

MIC [2]: > 256 µg/mL
SMILES: O=C(Nc1ncccn1)C1CCC1
Activity [1]: 26.8%

MIC [2]: > 256 µg/mL
SMILES: O=C(Nc1ncccn1)OCc1ccccc1
Activity [1]: 24.5%

MIC [2]: > 256 µg/mL
SMILES: CCCCCCCCCCCCCC(=O)Nc1nccc(C)n1
Activity [1]: 26.9%

MIC [4]: 64 µg/mL | MIC [7]: 0.125 µg/mL | MIC [2]: > 256 µg/mL | MIC [9]: 128 µg/mL | IC50 [13]: 11.4 µM | MIC [3]: 256 µg/mL (≈ 721 µM) | IC50 [16]: 16.5 µM | IC50 [18]: 6.34 µM | IC50 [22]: 39.3 µM | IC50 [23]: 68.1 µM | IC50 [24]: 43.3 µM
SMILES: CCCCCCCCCCCCCC(=O)Nc1nc(N)cc(Cl)n1
Activity [5]: 16.04 | Activity [1]: 69.9% | inhibition at 200 µM [6]: < 50% | Activity [8]: 101.81% | fractional inhibitory concentration index (FICI) [10]: 0.25 | Activity [11]: 100.68% | Activity [12]: 100.81% | Activity [14]: 100.89% | Activity [15]: 65% | fractional inhibitory concentration index (FICI) [17]: 0.25 | inhibition at 200 µM [19]: < 50% | inhibition at 200 µM [20]: < 50% | Activity [21]: Active | fractional inhibitory concentration index (FICI) [25]: 0.25 | inhibition at 200 µM [26]: < 50% | Activity [27]: 99.88%

MIC [2]: > 256 µg/mL
SMILES: CCCCCCCCCCCCCC(=O)Nc1nc(Cl)c(Cl)c(Cl)n1
Activity [1]: 32%

MIC [2]: > 256 µg/mL
SMILES: CCCCCCCCCCCCCC(=O)Nc1nc(Cl)cc(NC)n1
Activity [1]: 27%

MIC [2]: > 256 µg/mL
SMILES: CCCCCCCCCCCCCC(=O)Nc1nc(C)cc(O)n1
Activity [1]: 37.8%

SMILES: CCCCCCCCCCCCCC(=O)Nc1nc(F)cc(F)n1
Activity [1]: 20.8%

MIC [2]: > 256 µg/mL
SMILES: CCCCCCCCCCCCCC(=O)Nc1nc(C)cc(Cl)n1
Activity [1]: 46.6%

MIC [2]: > 256 µg/mL
SMILES: CCCCCCCCCCCCCC(=O)Nc1nc(Cl)cc(Cl)n1
Activity [1]: 63.1%

MIC [2]: > 256 µg/mL
SMILES: Cc1cc(C)c(C(=O)Nc2ncccn2)c(C)c1
Activity [1]: 26.9%

MIC [2]: > 256 µg/mL
SMILES: CCCCCCCCCCCCCC(=O)Nc1ncc(Br)cn1
Activity [1]: 31.1%

MIC [4]: 64 µg/mL | MIC [7]: 0.125 µg/mL | MIC [2]: > 256 µg/mL | MIC [9]: 128 µg/mL | IC50 [13]: 47.5 µM | IC50 [29]: 3.68 µM | IC50 [30]: 9.98 µM | MIC [3]: 256 µg/mL (≈ 604 µM) | IC50 [16]: 1.89 µM | IC50 [18]: 4.43 µM | IC50 [31]: 6.76 µM | IC50 [32]: 11.2 µM | IC50 [22]: 16.5 µM | IC50 [23]: 3.98 µM | IC50 [24]: 5.92 µM
SMILES: CCCCCCCCCCCCCC(=O)Nc1nc(Cl)cc(N2CCNCC2)n1
Activity [5]: 14.68 | Activity [1]: 70.2% | Activity [8]: 20.84% | fractional inhibitory concentration index (FICI) [10]: 0.25 | Activity [11]: 21.11% | Activity [12]: 80.61% | IC50 at 24 h [28]: 73.6 µM | Activity [14]: 99.3% | Activity [15]: 72% | fractional inhibitory concentration index (FICI) [17]: 0.25 | Activity [21]: Active | fractional inhibitory concentration index (FICI) [25]: 0.13 | Activity [33]: Active | Activity [27]: 99.3%

MIC [2]: > 256 µg/mL
SMILES: CCCCCCCCCCCCCC(=O)Nc1nccc(Cl)n1
Activity [1]: 44.9%

MIC [2]: > 256 µg/mL
SMILES: CCCC(=O)Nc1ncccn1
Activity [1]: 28.3%

MIC [2]: > 256 µg/mL
SMILES: O=C(Nc1ncccn1)c1ccc([N+](=O)[O-])cc1
Activity [1]: 25.1%
